We go through 5 compounds from US10239839B2, “Compounds and formulations suitable for radical scavenging” (Solenne BV, priority 2006, dated 2019).

Series [1] is described as follows: Photo-oxidation of adamantylideneadamantane, UV light source. The note with it: compared with α-tocopherol. The method, then: [e] Two beakers were irradiated simultaneously with a UV light source (Philips HB172, fitted with 4 Philips Cleo 15 W luminescent tubes; UV-type 3). Beaker 1 contained a mixture of 301.0 mg of adamantylideneadamantane and 24.9 mg of α-tocopherol (Aldrich, >97%) in 100 mL of chlorobenzene. This solution was placed in a 250 mL beaker, which was wrapped with paper and Al-foil to prevent light going through the side of the beaker. The solution was stirred magnetically and irradiated 7 hours with a UV lamp (Philips HB172, fitted with 4 Philips Cleo 15 W luminescent tubes; UV-type 3), which was mounted horizontally directly above the beakers. The reaction mixture was concentrated in vacuo and the resulting solid material was analyzed by ^1H NMR spectroscopy as described above. […] The ratio of the integrals of unreacted adamantylideneadamantane (at 2.9 ppm) to adamantylideneadamantane peroxide was 90:10.
Beaker 2 contained a mixture of 301.2 mg of adamantylideneadamantane and 25.0 mg of HG2-V2 in 100 mL of chlorobenzene. This solution was placed in a 250 mL beaker, which was wrapped with paper and Al-foil to prevent light going through the side of the beaker. […] The reaction mixture was concentrated in vacuo and the resulting solid material was analyzed by ^1H NMR spectroscopy as described above. […]

For series [2], the system named is erythema. The experiment in a line: Erythemal response to 3×MED full spectrum UV light after occluded patches. It counts as in vivo, human. The note with it: 0.3% wt. in grape seed oil, 3×MED 24 hours after treatment, 25 subjects. The method, then: [c] 25 human subjects, for which the minimal erythemal dose (MED) of full spectrum UV light (Solar Light Company's 601-300 Multiport Simulator, emitting light of a Xenon-Shortarc Lamp) had been determined, were treated with 6 occluded patches (on the back) with a formulation of HG2-V2 (0.3% wt.) in grape seed oil. 24 hours after patch treatment, the regions of application were exposed to 3×MED of the same light source. […] This provides evidence that the formulation provided an anti-erythemic effect, since erythema scores for 3×MED should range between 1-3.

Series [3] can be described thus: Percutaneous absorption study. In kind it is in vitro ADME. The note with it: 0.3% (wt.) in grape seed oil. As for the experimental part: [d] A percutaneous absorption study was conducted with 6 fresh viable skin samples from one donor, where 20 times recommended usage level (recommended usage level is 6-8 drops on the face) of a 0.3% (wt.) formulation of HG2-V2 in grape seed oil was used. Analysis by extraction of receptor fluid with toluene and analysis with HPLC-MS (using Buckyprep analytical column) was performed.

Series [4] is described as follows: Stability of solutions exposed to light and air. In kind it is physicochemical. The note with it: dissolved in grape seed oil, darker than parent oil, up to a year. The source says: For example, it is known in the art that a dilute solution of C60 in toluene exposed to light and air will undergo approximately 10% or more degradation and loss of the C60 due to epoxidation and subsequent breakdown of the fullerene cage resulting from singlet oxygen generated via photoexcitation of the C60. This can be seen even visually since the decomposed C60 forms a blackish product which settles out of solution.

Series [5] in a line: UV-Vis absorbance / optical density. It counts as physicochemical. The method, then: All of these oils show an absorbance (A) at λ=570 nm of A570 less than 0.05 when measuring the neat oil against water, using 1 cm cuvettes as is general practice. The above absorbance profiles were measured by placing the neat oil in the 1 cm path length spectrometer cuvette. […] Olive oil typically has a darker appearance (and is thus more optically dense) than the other oils, and this can be seen in the absorption profile.
In many instances, the concentration of fullerene, fullerene derivative, or fullerene-derived ketolactam desired due to considerations of optimal antioxidant efficacy is higher than can be conveniently measured by standard UV/vis spectroscopy. For concentrated solutions, dilution may be necessary to obtain a proper spectrum in the so-called visible area (λ=400-700 nm). If such concentrated solutions are measured without dilution, A570 may exceed a limit to obtain an accurate measurement, or may even exceed the maximum value that can be measured by the spectrometer. As an example, the spectrum of a concentrated solution of HG2-V2 in grapeseed oil (9.2 mg HG2-V2 dissolved in 3 mL), diluted×10 (v/v) with toluene, is shown in FIG. 8. Here, A570 is 0.24, meaning that without dilution it would give approximately A=2.4. Common UV-Vis spectrometers can usually measure up to A≈5, meaning that for this solution a large part of the spectrum (λ<510 nm) could not have been accurately measured without dilution.
400 mg HG2-V2 was added to 100 g of commercially available liquid grape seed oil and stirred with mechanical stirring for 4 hours at 25 deg. C. The HG2-V2 dissolved to give a clear, dark, amber colored solution of 0.4% (wt.) active in a simple solution. The optical density measured for this solution was over 2 AU/cm, and after 10/1 dilution with toluene was over 0.2.

The conditions of series [6]: natural sunlight, chlorobenzene.
Method: [f] Two beakers were irradiated simultaneously by natural sunlight. Beaker 2 contained a solution of 300.5 mg of adad and 17.9 mg of PCBM in 100 mL of chlorobenzene. This solution was placed in a 250 mL beaker, wrapped with paper and Al-foil to prevent light going through the side of the beaker. […] The resulting solution was put in a brown-glass bottle for transport. The solvent was removed in vacuo and the resulting solid material was analyzed by ^1H NMR spectroscopy as described above.
This solution was placed in a 250 mL beaker, wrapped with paper and Al-foil to prevent light going through the side of the beaker. […] The resulting solution was placed in a brown-glass bottle for transport. Approximately 10 mL of the reaction mixture was filtered and put aside. The remaining amount was concentrated in vacuo and the resulting solid material was analyzed by ^1H NMR spectroscopy as described above.
This solution gave an absorbance of A=0.14 at 646 nm (against neat chlorobenzene).
For series [7] the following is noted: Tagmatarchis et al.; Hauke et al.; cited from earlier work.
Series [8] is described as follows: Photo-oxidation of adamantylideneadamantane (ad=ad) to monitor ^1O2 formation, sodium lamp. The note with it: bubbling air. The source says: Excited fullerene, triplet+O2→fullerene+singlet oxygen (^1O2) The ^1O2 thus generated can react with a fullerene, giving an oxidized fullerene, or with other molecules that can react with ^1O2. One such molecule is adamantylideneadamantane (ad=ad), which is known to react with ^1O2, giving a stable 1,2-dioxetane, adamantylideneadamantane peroxide, as the product (J. H. Wieringa et al., Tetrahedron Letters 1972, 2, 169). This reaction is depicted in FIG. 11. This oxidation of ad=ad can be used to monitor the formation of ^1O2 by fullerenes or fullerene derivatives.
In a first set of experiments, Phenyl-C61-Butyric-Acid-Methyl-Ester (PCBM,) and HG2-V1 were compared. […] After reaction overnight, the solvent was removed in vacuo and the residual material analyzed by ^1H NMR. […]
In a second set of experiments, the above reaction was done at a high concentration (20 mg/mL) of ad=ad, this time using CCl4 as the solvent. […] Thus, samples from the reaction can be directly analyzed by ^1H NMR, when diluted with, e.g., CDCl3. […]
Samples of 150-200 μL were taken from the reaction and diluted with ˜400 μL of CDCl3. […] Thus, the formation of adamantylideneadamantane peroxide was monitored over time, by following the appearance of the signal at 2.65 ppm. […]

“Also recorded” adds a separate entry of the source.

Take “2a-Aza-1,2(2a)-homo-1,9-seco[5,6]fullerene-C60—Ih-1,9-dione,2a-[[4-docosyloxy)-3-methoxyphenyl]methyl] [HG2-V2]”: the “net generation of ^1O2 under UV irradiation, equal weight percentage” value in series [1] is given as “less for HG2-V2 than α-tocopherol”. Further, the “average erythemic response on the erythema response scale (1 = first sign of erythema)” value in series [2] stood at 0.77. Also, the percutaneous absorption result in series [3] (20 times recommended usage level, receptor fluid 8 hr and 24 hr) is recorded as “less than 0.004%”. For the same compound, in series [3] (8 hr and 24 hr collection points), the “content in receptor fluid (HPLC-MS)” value is “no HG2-V2 at or above analytical detection limit”. Also, the “decomposition on exposure to light and air” value in series [4] is on record as “reduced amount of decomposition products”. Further, the A570 in series [5] (9.2 mg in 3 mL grapeseed oil, diluted ×10 (v/v) with toluene) is given as 0.24. In series [5] (9.2 mg in 3 mL grapeseed oil, extrapolated), the A570 without dilution is around 2.4. For the same compound, in series [5] (0.4% (wt.) in grape seed oil), the optical density entry is reported as “over 2 AU/cm” and the “optical density after 10/1 dilution with toluene” value is reported as “over 0.2”.

With `CN(C)c1ccc2nc3ccc(=[N+](C)C)cc-3sc2c1` [MB, methylene blue], in series [6], the “amount of ^1O2 compared to PCBM on an equal absorption and equimolar basis” value is 25 times; the “net generation of ^1O2 compared to PCBM on an equimolar basis” value is 250 times. In addition, in series [5], the “average optical absorption between 400 nm and 700 nm compared to PCBM” value was “about 10 times”.

(C59N)2: the “^1O2 quantum yields (in words)” value in series [7] is given as “reduced ^1O2 quantum yields”.

With C59NH, the “^1O2 quantum yields (in words)” value in series [7] was “reduced ^1O2 quantum yields”.

On to “Phenyl-C61-Butyric-Acid-Methyl-Ester [PCBM]”, for which the “production of adamantylideneadamantane peroxide over time (ratio of peak at 2.65 ppm and signal at 2.88 ppm of ad=ad)” value in series [8] (CCl4, ad=ad 20 mg/mL, 150 W sodium lamp, equal molarity) is listed as “much faster”. Also, in series [8] (chlorobenzene, ad=ad 1.5 mg/mL, 400 W sodium lamp, 16.5-17 h), the “amount of adamantylideneadamantane peroxide formed (^1H NMR signal at 2.65 ppm)” value is listed as “much larger than that formed when using HG2-V1; also recorded: substantial amount”.
